# Laboratory results from patent US20080207538A1, “Enhanced Production of Functional Proteins From Defective Genes” (priority 2004, published 2008).
# Key:
# [1] = system: stop codon inserted into the reading frame of firefly luciferase; experiment: stop codon read-through, dual luciferase assay in transfected 293T cells; type: cell-based, human; settings: relative to untreated transfected cells, 24 hour incubation
# Experimental: Plasmid construction. The wild type human fibroblast cell line GM02037 (Coriell Cell Repositories, NJ) was used as the DNA template for atm promoter amplification. In brief, the Qiagen Blood & Cell Culture DNA Mini kit was used to purify genomic DNA. ATM gene promoter primers, which were used to amplify the desired fragment DNA, were designed based on the sequence in Genebank. The forward primer sequence employed was […] (SEQ ID NO:1) and the reverse primer was […] (SEQ ID NO:2). PCR was carried out using the Roche Expand High Fidelity PCR system. The amplified atm promoter region was then cloned into the TOPO2.1 PCR vector (Invitrogen) for sequencing verification and subsequently subcloned into the promoterless plasmid PA3Luc. Firefly luciferase cDNA was mutated (QuikChange Site-Directed Mutagenesis Kit) in the desired region to furnish the three stop codons, as shown as FIG. 1(C). The CMV driven Renilla luciferase plasmid was purchased from Promega as the internal control for the dual luciferase assay.
# Transfections were performed using GeneJammer reagent (Stratagene) based on the protocol from the manufacturer. In brief, approximately […] HEK293T cells were seeded into white 96 well plates (Corning) and grown for less than 24 hours. Cells were transfected with 0.6 μL of GeneJammer and 0.1 μg plasmids. In the dual luciferase assay, the plasmid ratio of ATM promoter-driven firefly luciferase to CMV promoter-driven Renilla luciferase was 30:1. In the dual luciferase experiments that utilized the stop codon-containing firefly luciferase genes, the ratio was 40:1. On the second day after transfection, the medium in each well was changed, and the promoter and/or nonsense-suppressing agents added to the wells for a 24 hour incubation period. The cells were subsequently lysed and promoter activity/nonsense suppression efficiency then assessed via the dual luciferase assay.
# Dual luciferase assay. The dual luciferase kit was purchased from Promega and the protocol employed was conducted according to the directions supplied by the manufacturer. In brief, cells were washed with PBS and lysates were prepared using passive lysis buffer. Luminescence was determined with a Molecular Devices Lmax 96 well plate luminometer. Light emission was measured after each of the 100 μL luminescence substrates and/or stop solutions were injected. ATM promoter activity was calculated by the ratio of relative light units of flash (firefly) to glow (renilla) luminescence in each well, which was compared with control wells (cultured only in medium with plasmid but no drug treatment) in each plate. In the case of the stop codon suppression studies, controls also included cells containing the plasmids without the inserted stop codon, which were treated with nonsense suppressing and/or promoter activating agents. All individual treatments in a given experiment were performed in triplicate and all experiments repeated 3-10 times.
# An evaluation was made of the ability of aminoglycosides, in combination with promoter activating agents, to augment read-through of a stop codon inserted into the reading frame of firefly luciferase (FIG. 1C).
# atm message = experiment: atm mRNA quantitation by real time PCR (RT-PCR) after drug treatment; type: cell-based, human; settings: for Fold-increase (atm message levels): relative to untreated cell line
# Experimental: Cell culture and transfection. Human Kidney HEK293T cell was a gift from Professor Philipp Scherer in the Department of Cell Biology at the Albert Einstein College of Medicine. All other cell lines were purchased from Coriell Cell Repositories, NJ. HEK293T cells were maintained in Dulbecco's Modified Eagle Medium with 1 g/L D-glucose and 10% fetal bovine serum. The Human AT fibroblast cell line GM05823 was cultured in MEM medium with 1 g/L D-glucose and 15% fetal bovine serum. The Human lympoblastoid cell lines GM 13810 and GM13860 were cultured in RPMI 1640 medium with 10% heat inactivated fetal bovine serum and 1 g/L of D-glucose. All cell lines were incubated at 37° C. in a humidified 5% CO2 atmosphere.
# mRNA Quantitation. Single-stranded cDNAs were synthesized by reverse transcription, using a First Strand cDNA Synthesis kit (Invitrogen), and then used as a template in polymerase chain reactions. ATM mRNA was primarily quantified using real time polymerase chain reaction (PCR). In brief, cells were treated with the desired drugs or combinations thereof under conditions identical to those described above for the dual luciferase assay. Cells were lysed and RNA extracted with the TRIzol reagent (Invitrogen). Approximately 1 μg of total RNA in each sample was subjected to CDNA synthesis using the First Strand cDNA Synthesis kit (Invitrogen). In the real time PCR reaction, the FAM labeled MGB probe, CCAGCTATTTGGTTTGAG (SEQ ID NO:3), was designed by the Primer Express software from Applied Biosystems (AB) and synthesized by AB. The human β-actin MGB probes, VIC or FAM fluorescently labeled, were purchased from AB. All other reaction reagents were purchased from AB. PCR reactions were performed using the ABI PRISM 7000 Sequence Detection System in triplicate. Some samples were also tested on the ABI 7700 Sequence Detection System for verification and essentially identical results were obtained with both real time PCR instruments. All collected data were compared with a […] control. In addition to real time PCR, the branched chain DNA (bDNA) RNA quantitation method was employed as well. Briefly, the QuantiGene kit as well as the customer designed atm probe sets were purchased from Genospectra. The latter probes target the same region on the atm message RNA region as the real time PCR probes. The cells were treated as described above for the dual luciferase assay. Cell lysates were transferred into a capture plate and atm mRNA allowed to hybridize with the probe set at 53° C. overnight. After 16-20 hours, the signal was amplified and subsequently read using a Molecular Devices Lmax luminometer. The internal human β-actin probe sets were purchased from Genospectra. All experiments were performed in triplicate.
# The effect of ofloxacin on native atm message levels was subsequently examined in 293T cells as well as in lymphoblastoid and primary fibroblast cell lines derived from A-T patients (Table 1). Message levels are enhanced 2.4±0.1 fold in 293T cells treated with ofloxicin for 24 hours. By contrast, an up to nearly 6-fold increase is observed in ATM-deficient (A-T) cell lines. The latter results offer the intriguing possibility that atm message levels are elevated more dramatically in an ATM-deficient environment.
# [2] = system: animal models of cystic fibrosis and Duchenne muscular dystrophy; settings: reported; cited from earlier work
# [3] = system: patients with sickle-cell anemia; settings: Perrine et al., 1993; cited from earlier work
# atm promoter = experiment: cell-based screen for atm promoter enhancing agents (atm/pA3LUC dual luciferase, 293T cells); parameters: species or system human; settings: transiently transfected 293T cells; firefly/renilla luciferase
# Source text: Plasmid construction. The wild type human fibroblast cell line GM02037 (Coriell Cell Repositories, NJ) was used as the DNA template for atm promoter amplification. In brief, the Qiagen Blood & Cell Culture DNA Mini kit was used to purify genomic DNA. ATM gene promoter primers, which were used to amplify the desired fragment DNA, were designed based on the sequence in Genebank. The forward primer sequence employed was […] (SEQ ID NO:1) and the reverse primer was GCCACGGGAGGAGGCGAG (SEQ ID NO:2). PCR was carried out using the Roche Expand High Fidelity PCR system. […]
# Transfections were performed using GeneJammer reagent (Stratagene) based on the protocol from the manufacturer. […] The cells were subsequently lysed and promoter activity/nonsense suppression efficiency then assessed via the dual luciferase assay.
# Dual luciferase assay. […] Luminescence was determined with a Molecular Devices Lmax 96 well plate luminometer. Light emission was measured after each of the 100 μL luminescence substrates and/or stop solutions were injected. ATM promoter activity was calculated by the ratio of relative light units of flash (firefly) to glow (renilla) luminescence in each well, which was compared with control wells (cultured only in medium with plasmid but no drug treatment) in each plate. […]
# nonsense mutations = settings: reported, Keeling and Bedwell, 2002; cited from earlier work
compound,measurement,setting,value
"CN[C@@H]1[C@@H](O)[C@@H](O[C@@H]2[C@@H](O)[C@H](O[C@H]3O[C@H]([C@@H](C)O)[C@@H](O)[C@H](O)[C@H]3N)[C@@H](N)C[C@H]2N)OC[C@]1(C)O [Geneticin, geneticin]",Fold-increase (read-through),[1]; amber (UAG) stop codon,14.9 ± 1.9 fold
same,Fold-increase (read-through),[1]; ochre (UAA) stop codon,7.9 ± 3.0 fold
same,Fold-increase (read-through),[1]; opal (UGA) stop codon,6.5 ± 0.8 fold
"CC1COc2c(N3CCN(C)CC3)c(F)cc3c(=O)c(C(=O)O)cn1c23 (stereo not shown) [Ofloxacin, ofloxacin]",Message levels enhanced (atm),"atm message; 293T cells, treated for 24 hours",2.4±0.1 fold
same,increase in atm message levels,"atm message; ATM-deficient (A-T) cell lines, summary of Table 1",≤ 6 fold
same,Fold-increase (atm message levels),"atm message; GM05823 (A-T) fibroblast cell line, 2 hours after ofloxacin",2.2 ± 0.1 fold
same,Fold-increase (atm message levels),"atm message; GM05823 (A-T) fibroblast cell line, 6 hours after ofloxacin",3.0 ± 0.2 fold
same,Fold-increase (atm message levels),"atm message; GM05823 (A-T) fibroblast cell line, 24 hours after ofloxacin",5.8 ± 0.4 fold
same,Fold-increase (atm message levels),"atm message; GM13810 (A-T) lymphoblastoid cell line, 2 hours after ofloxacin",1.2 ± 0.2 fold
same,Fold-increase (atm message levels),"atm message; GM13810 (A-T) lymphoblastoid cell line, 6 hours after ofloxacin",2.3 ± 0.3 fold
same,Fold-increase (atm message levels),"atm message; GM13810 (A-T) lymphoblastoid cell line, 24 hours after ofloxacin",5.4 ± 0.7 fold
same,Fold-increase (atm message levels),"atm message; GM13860 (A-T) lymphoblastoid cell line, 2 hours after ofloxacin",3.8 ± 0.9 fold
same,Fold-increase (atm message levels),"atm message; GM13860 (A-T) lymphoblastoid cell line, 6 hours after ofloxacin",2.3 ± 0.3 fold
same,Fold-increase (atm message levels),"atm message; GM13860 (A-T) lymphoblastoid cell line, 24 hours after ofloxacin",3.3 ± 0.3 fold
O=C(O)c1cccc(-c2noc(-c3ccccc3F)n2)c1 [PTC124],efficacy in animal models,[2],effective
"CCCC(=O)[O-].[Na+] [Sodium butyrate, sodium butyrate]",toxicity in patients,[3],minimal toxicity
"Nc1nc2nc[nH]c2c(=S)[nH]1 [Thioguanine, thioguanine]",activation of the atm promoter,atm promoter,induce atm promoter activity
NCC[C@H](O)C(=O)N[C@@H]1C[C@H](N)[C@@H](O[C@H]2O[C@H](CN)[C@@H](O)[C@H](O)[C@H]2O)[C@H](O)[C@H]1O[C@H]1O[C@H](CO)[C@@H](O)[C@H](N)[C@H]1O [amikacin],effectiveness at suppressing nonsense mutations compared with tobramycin,nonsense mutations,more effective
gentamicin,effectiveness at suppressing nonsense mutations compared with tobramycin,nonsense mutations,more effective
same,Fold-increase (read-through),[1]; amber (UAG) stop codon,8.2 ± 1.8 fold
same,Fold-increase (read-through),[1]; ochre (UAA) stop codon,6.7 ± 1.5 fold
same,Fold-increase (read-through),[1]; opal (UGA) stop codon,8.7 ± 1.2 fold
